According to patent US5389615A, “Peptides and pharmaceutical composition thereof in the treatment of pain” (British Technology Group Ltd., priority 1988, dated 1995):
Where “and” joins values, the source holds several entries; their conditions need not be identical. Equal entries are not always repeated. Where two headings read alike, the source gives them in different places. Non-standard residues stand in square brackets, D forms with d. Residues, ends and D or L forms follow the SMILES beside them.

Columns and labels:
[1] = tested on: hyperalgesia evoked by IL-1β; settings: reference analgesics; cited from earlier work
[2] = in vivo
[3] = tested on: hyperalgesia evoked by DbcAMP; test: Rat paw pressure test, hyperalgesia evoked by DbcAMP; type: in vivo; settings: rat, in vivo
[4] = tested on: hyperalgesia evoked by IL-1β; test: Modified Randall-Sellito rat paw pressure test, hyperalgesia evoked by IL-1β; type: in vivo; settings: indomethacin 100 μg ipl 30 minutes before 0.05U IL-1β ipl or ip
Procedure: The hyperalgesic activity of IL-1β was investigated by a modified Randall-Sellito rat paw pressure test (Ferreira et al, Eur. J. Pharacol. 53, 39-48, 1978).
The IL-1β was given either intraplantar (ipl, injection volume=0.1 ml) or intraperitoneally (ip, injection volume=0.3 ml).
The intensity of hyperalgesia was quantified as the variation of the reaction time (Δ reaction time, sec) obtained by subtracting the value measured 1,2,3 or 4h after administration of the hyperalgesic agent from the pre-injection control reaction time (zero time). The experimenter was unaware of the group treatments.
The vertical bars are standard errors of the means (s.e.m's) of values obtained in groups of 5 rats.
Each symbol or histogram represents the mean response of 5 animals per treatment group. Vertical bars are s.e.m's.
The data are means±s.e.m.'s of 5 animals per treatment group.
Each symbol represents the mean response of 5 animals per treatment group. Vertical bars are s.e.m.'s.
Treatments were given ip, lh before Il-1β, also given ip. There were 5 animals per treatment group.
Delta reaction time was measured 3h after Il-1β administration.
The Control was II-1β (0.05U), given ip.

[5] = tested on: hyperalgesia evoked by Iloprost; test: Contortions (writhing) evoked by Iloprost, Examples 9 and 10; type: in vivo, mice; settings: Example 10, Iloprost 10 μg/kg; for total number of contorsions during 20 minutes after ip challenge: control 39.4
Procedure: (§1) Iloprost is a stable analogue of prostacyclin and has the formula: [drawing 4]
(§2) Example 9 was repeated with some groups of mice given indomethacin at various doses rather than the peptide K(D)PT. A control group of mice received neither indomethacin nor K(D)PT. The data are the total number of contorsions measured during 20 minutes after the ip challenge.

[6] = tested on: human blood mononuclear cells (MNC); test: PGE2 release by human blood mononuclear cells; type: cell-based
Procedure: The effect of K(D)PT and indomethacin on PGE2 release by human blood mononuclear cells (MNC) was investigated. The MNC were isolated from buffy coat residues by density gradient centrifugation (Ficoll-hypaque, Sigma) and resuspended in RPMI 1640 culture medium (Gibco)+ 2% inactivated foetal calf serum (Imperial Laboratories). […] Values are means of quadruplicates ±s.e.m.'s. PGE2 concentrations were measured by radioimmunoassay (NEN Research Products).

[7] = tested on: hyperalgesia evoked by acetic acid; test: Contorsions evoked by acetic acid, Example 19; type: in vivo, mice; settings: for number of contorsions (median), 10 to 20 min after acetic acid: 30 min before acetic acid
Procedure: The number of contorsions (abdominal constrictions or writhes) was counted in the period between 10 and 20 min after ip challenge with acetic acid by an observer unaware of drug treatment.

[8] = tested on: hyperalgesia evoked by acetic acid; test: Contortions (writhing) evoked by acetic acid, Examples 9 and 10; type: in vivo, mice; settings: Example 10; for total number of contorsions during 20 minutes after ip challenge: control 45.3
Procedure: as §1, §2

[9] = mouse, in vivo

**Q.** Which results are given for `CN1CC[C@]23c4c5ccc(O)c4O[C@H]2[C@@H](O)C=C[C@H]3[C@H]1C5` [Morphine, morphine]?
**A.** antagonism of on-going hyperalgesia [1]: able to antagonize on-going hyperalgesia; reaction time difference, hot plate [2]: 3.52 s and 5.55 s; antagonism of hyperalgesia evoked by DbcAMP [3]: effective antagonist

**Q.** What does the source list for `COc1ccc2c(c1)c(CC(=O)O)c(C)n2C(=O)c1ccc(Cl)cc1` [Indomethacin, indomethacin]?
**A.** effect of pretreatment on hyperalgesic response to IL-1β, contralateral paws (CL) [4]: no effect; effect of pretreatment on hyperalgesic response to IL-1β, treated paws (I) [4]: markedly attenuated; (-%) reduction of contorsions vs control ([5]; 1.25 mg/kg): 7.6%; total number of contorsions during 20 minutes after ip challenge ([5]; 1.25 mg/kg): 36.4; (-%) reduction of contorsions vs control ([5]; 5.0 mg/kg): 26.0%; total number of contorsions during 20 minutes after ip challenge ([5]; 5.0 mg/kg): 29.2; (-%) reduction of contorsions vs control ([5]; 20.0 mg/kg): 46.0%; total number of contorsions during 20 minutes after ip challenge ([5]; 20.0 mg/kg): 21.3; effect on production of PGE2 / prostaglandin [6]: abolished PGE2 production; PGE2 release by MNC incubated for 4h with IL-1α (50 U/ml) ([6]; 2 μg/ml, 5.9 micromoles/L, added 45 min before, ethanol control 2.0): 0.03 ± 0.0007 ng/mL; PGE2 release by MNC incubated for 4h with IL-1β (50 U/ml) ([6]; 2 μg/ml, 5.9 micromoles/L, added 45 min before, ethanol control 2.1): 0.03 ± 0.0005 ng/mL; PGE2 release by MNC incubated for 4h with E. coli endotoxin (25 pg/ml) ([6]; 2 μg/ml, 5.9 micromoles/L, added 45 min before, ethanol control 3.1): 0.03 ± 0.0004 ng/mL; PGE2 release by MNC (5 × 10^6 cells/ml) incubated for 4h with Saline control (0.9% w/v) ([6]; 2 μg/ml, 5.9 micromoles/L, ethanol control 1.3): 0.03 ± 0.0002 ng/ml; % reductions from control values in mice injected with saline ([7]; 2.5 mg/kg ip): -37%; number of contorsions (median), 10 to 20 min after acetic acid ([7]; 2.5 mg/kg ip): 16.5; % reductions from control values in mice injected with saline ([7]; 5 mg/kg ip): -61.5%; number of contorsions (median), 10 to 20 min after acetic acid ([7]; 5 mg/kg ip): 10; % reductions from control values in mice injected with saline ([7]; 10 mg/kg ip): -61.5%; number of contorsions (median), 10 to 20 min after acetic acid ([7]; 10 mg/kg ip): 10; total number of contorsions during 20 minutes after ip challenge ([8]; acetic acid .6% 0.1 ml/10 g, 1.25 mg/kg): 34.6; (-%) reduction of contorsions vs control ([8]; acetic acid .6%, 1.25 mg/kg): 23.6%; (-%) reduction of contorsions vs control ([8]; acetic acid .6%, 5.0 mg/kg): 46.3%; total number of contorsions during 20 minutes after ip challenge ([8]; acetic acid .6%, 5.0 mg/kg): 24.3; (-%) reduction of contorsions vs control ([8]; acetic acid .6%, 20.0 mg/kg): 57.4%; total number of contorsions during 20 minutes after ip challenge ([8]; acetic acid .6%, 20.0 mg/kg): 19.3; gastric erosions, % of the mice [9]: 100%; gastric lesions [9]: caused gastric lesions

**Q.** What does the source list for `C[C@@H](O)[C@H](NC(=O)[C@H]1CCCN1C(=O)[C@@H](N)CCCCN)C(=O)O` [K(D)PT, Lys-D-Pro-Thr] (H-Lys-[dP]-Thr-OH)?
**A.** gastric lesions (Gastric lesions in mice; 32 mg/kg): No lesions were observed; gastric lesions (Gastric lesions in mice; mice of Example 10): did not

**Q.** With `Cc1c(N(C)CS(=O)(=O)O)c(=O)n(-c2ccccc2)n1C` [dipyrone] as the molecule, how does the “antagonism of on-going hyperalgesia” value [1] read?
**A.** The value was “able to antagonize on-going hyperalgesia”.
